Our source for the MIC and IC50 values is ChEMBL document CHEMBL1136392, “Anilinopyrimidines as novel antituberculosis agents” (Bioorg Med Chem Lett, 2003).

In experiment [1] the test system is Mycobacterium tuberculosis. The experiment is described as follows: Minimum inhibitory concentration against Mycobacterium tuberculosis using microplate alamar blue assay. It counts as functional. Background: Alamar Blue is a resazurin reagent that responds to reducing activity.
Experiment [2] relates to Mycobacterium tuberculosis. Nature of the experiment: Minimum inhibitory concentration against Mycobacterium tuberculosis using microplate alamar blue assay; Inactive. It counts as functional, organism-based.
The next experiment relates to Plasmodium falciparum. The experiment is described as follows: In vitro activity as 50% reduction in parasite growth against Plasmodium falciparum by [3H]hypoxanthine uptake. It counts as functional, organism-based.
Experiment [3] relates to Mycobacterium tuberculosis. The experiment is described as follows: Minimum inhibitory concentration against (MDR-TB) Mycobacterium tuberculosis using microplate alamar blue assay. It counts as functional.
Another experiment deals with Breast carcinoma cell. The experiment is described as follows: Cytotoxic concentration of compound against human breast cancer cells. The experiment is classed as functional, cell-based.
Experiment [4] can be described thus: Cytotoxic concentration of compound against human small cell lung cancer (NCI-187). It counts as functional.
A short description of experiment [5]: Cytotoxic concentration of compound against human epidermal carcinoma (KB) cell line. It counts as functional.

≈ marks a conversion by molar mass, not a printed value. Calls of active or inactive are those of the source. The calls are words filed in the database; no cut-off is given here.

As usually defined, the MIC is the lowest concentration found to suppress growth. In experiment [1], `CCN(CC)c1nc(C)cc(N(C)c2ccccc2)n1` gave an MIC of 50 µg/mL (≈ 185 µM).

In experiment [1], `Cc1cc(Nc2ccccc2)nc(Cl)n1` came in with an MIC of 50 µg/mL (≈ 228 µM).

Regarding `CCCN(CC1CC1)c1nc(C)cc(N(C)c2c(C)cc(C)cc2C)n1`, it took 3.12 µg/mL (≈ 8.85 µM) to inhibit growth in experiment [1] (MIC).

Turning to `CCCN(CC1CC1)c1nc(C)cc(Nc2ccccc2)n1`, the lowest concentration to inhibit growth in experiment [1] (MIC) was 12.5 µg/mL (≈ 42.2 µM).

On to `CCCN(CC1CC1)c1nc(C)cc(N(C)c2ccccc2)n1`, for which, in experiment [1], the MIC is 12.5 µg/mL (≈ 40.3 µM).

`CCN(CC)c1nc(C)cc(Nc2ccccc2)n1`: in experiment [1], the MIC was 25 µg/mL (≈ 97.5 µM).

In the case of `Cc1cc(C)c(Nc2cc(C)nc(Cl)n2)c(C)c1`, the MIC result in experiment [2] was “inactive”.

In general, IC50 refers to the concentration at which inhibition is half-maximal. A lower IC50 goes with higher potency. In turn, `C[C@@H]1CC[C@H]2[C@@H](C)C(=O)O[C@@H]3O[C@@]4(C)CC[C@@H]1[C@]32OO4` [ARTEMISININ] registered an IC50 in the experiment on Plasmodium falciparum of 1 ng/mL (≈ 0.00354 µM).

Compound `CC(C)/N=c1\cc2n(-c3ccc(Cl)cc3)c3ccccc3nc-2cc1Nc1ccc(Cl)cc1` [CLOFAZIMINE] had an MIC in experiment [3] of 2 µg/mL (≈ 4.22 µM).

As for `Cc1c2ccncc2c(C)c2c1[nH]c1ccccc12` [ELLIPTECINE], the IC50 (in the experiment with Breast carcinoma cell; in experiment [4]; in experiment [5]) was 0.1 µg/mL (≈ 0.406 µM) throughout.

On to `NNC(=O)c1ccncc1` [ISONIAZID], for which the lowest concentration to inhibit growth in experiment [1] (MIC) was 0.04 µg/mL (≈ 0.292 µM).

With `NC[C@H]1O[C@H](O[C@H]2[C@H](O)[C@@H](O[C@H]3O[C@H](CO)[C@@H](O)[C@H](N)[C@H]3O)[C@H](N)C[C@@H]2N)[C@H](O)[C@@H](O)[C@@H]1O.O=S(=O)(O)O` [KANAMYCIN SULFATE], inhibition of growth in experiment [1] (MIC) required 5 µg/mL.

The compound `NC(=O)c1cnccn1` [PYRAZINAMIDE] returned an MIC in experiment [1] of 20 µg/mL (≈ 162 µM).
